Data from ChEMBL document CHEMBL5653631, “A Potent and Selective ULK1 Inhibitor Suppresses Autophagy and Sensitizes Cancer Cells to Nutrient Stress” (iScience, 2018).

How the values were obtained:
[1] = target: Tyrosine-protein kinase JAK2 (Homo sapiens) (UniProt O60674); test: Inhibition of human recombinant JAK2 at 40 nM related to control ULK1
[2] = target: Macrophage-stimulating protein receptor (Homo sapiens) (UniProt Q04912); test: Inhibition of human recombinant RON at 40 nM related to control ULK1
[3] = target: Serine/threonine-protein kinase SIK1 (Homo sapiens) (UniProt P57059); test: Inhibition of human recombinant SIK at 40 nM related to control ULK1
Chain of Serine/threonine-protein kinase SIK1 (Homo sapiens) (P57059 whole entry): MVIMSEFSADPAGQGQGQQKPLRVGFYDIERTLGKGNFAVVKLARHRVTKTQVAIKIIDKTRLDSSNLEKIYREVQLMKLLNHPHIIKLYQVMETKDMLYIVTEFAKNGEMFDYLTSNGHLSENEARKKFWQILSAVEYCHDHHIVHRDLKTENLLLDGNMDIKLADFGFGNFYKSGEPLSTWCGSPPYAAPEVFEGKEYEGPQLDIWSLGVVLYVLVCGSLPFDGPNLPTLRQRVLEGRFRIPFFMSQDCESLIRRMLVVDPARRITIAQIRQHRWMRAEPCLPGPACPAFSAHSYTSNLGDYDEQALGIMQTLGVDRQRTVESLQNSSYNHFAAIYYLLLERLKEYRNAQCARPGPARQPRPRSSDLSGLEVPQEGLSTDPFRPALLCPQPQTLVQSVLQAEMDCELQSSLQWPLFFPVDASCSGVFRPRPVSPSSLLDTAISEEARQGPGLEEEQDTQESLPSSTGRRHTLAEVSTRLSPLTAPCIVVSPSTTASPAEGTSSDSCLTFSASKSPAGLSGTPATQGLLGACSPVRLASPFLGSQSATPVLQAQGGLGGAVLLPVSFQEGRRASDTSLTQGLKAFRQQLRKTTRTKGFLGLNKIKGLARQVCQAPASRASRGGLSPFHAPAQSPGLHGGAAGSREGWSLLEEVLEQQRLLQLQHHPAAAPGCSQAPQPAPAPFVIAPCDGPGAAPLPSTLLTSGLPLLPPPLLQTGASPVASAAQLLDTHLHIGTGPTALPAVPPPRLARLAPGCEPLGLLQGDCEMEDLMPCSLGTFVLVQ

[4] = target: Ephrin type-A receptor 2 (Homo sapiens) (UniProt P29317); test: Inhibition of human recombinant EphA2 at 40 nM related to control ULK1
Chain of Ephrin type-A receptor 2 (Homo sapiens) (P29317 whole entry): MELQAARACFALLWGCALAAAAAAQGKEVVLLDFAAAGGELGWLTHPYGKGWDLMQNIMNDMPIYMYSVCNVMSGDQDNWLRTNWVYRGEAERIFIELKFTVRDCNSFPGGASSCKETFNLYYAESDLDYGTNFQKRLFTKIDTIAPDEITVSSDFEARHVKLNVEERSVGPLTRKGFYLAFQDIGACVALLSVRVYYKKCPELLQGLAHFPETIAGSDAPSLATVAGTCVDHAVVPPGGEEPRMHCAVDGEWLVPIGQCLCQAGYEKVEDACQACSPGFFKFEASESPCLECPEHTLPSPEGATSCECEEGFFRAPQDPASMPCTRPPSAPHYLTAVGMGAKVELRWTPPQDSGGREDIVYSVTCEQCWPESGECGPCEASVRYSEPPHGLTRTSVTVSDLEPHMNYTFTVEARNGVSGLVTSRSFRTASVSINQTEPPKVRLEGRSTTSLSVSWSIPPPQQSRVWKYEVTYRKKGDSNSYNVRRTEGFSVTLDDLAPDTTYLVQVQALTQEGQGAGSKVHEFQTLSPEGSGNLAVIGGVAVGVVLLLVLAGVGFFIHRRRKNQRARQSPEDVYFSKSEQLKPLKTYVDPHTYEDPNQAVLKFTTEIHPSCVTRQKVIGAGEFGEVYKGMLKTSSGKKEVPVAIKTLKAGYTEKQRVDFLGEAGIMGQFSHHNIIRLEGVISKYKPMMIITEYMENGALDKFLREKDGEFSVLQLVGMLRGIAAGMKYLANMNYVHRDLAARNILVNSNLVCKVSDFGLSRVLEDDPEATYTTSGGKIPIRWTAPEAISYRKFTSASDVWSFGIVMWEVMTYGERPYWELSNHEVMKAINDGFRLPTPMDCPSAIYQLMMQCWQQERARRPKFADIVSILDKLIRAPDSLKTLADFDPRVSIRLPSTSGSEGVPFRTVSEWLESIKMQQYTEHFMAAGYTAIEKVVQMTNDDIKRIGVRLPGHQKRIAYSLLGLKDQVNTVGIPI

[5] = target: T1, Eukaryotic translation initiation factor 2-alpha kinase 3 (Homo sapiens) (UniProt Q9NZJ5); test: Inhibition of human recombinant PEK at 40 nM related to control ULK1
T1 sequence (whole entry): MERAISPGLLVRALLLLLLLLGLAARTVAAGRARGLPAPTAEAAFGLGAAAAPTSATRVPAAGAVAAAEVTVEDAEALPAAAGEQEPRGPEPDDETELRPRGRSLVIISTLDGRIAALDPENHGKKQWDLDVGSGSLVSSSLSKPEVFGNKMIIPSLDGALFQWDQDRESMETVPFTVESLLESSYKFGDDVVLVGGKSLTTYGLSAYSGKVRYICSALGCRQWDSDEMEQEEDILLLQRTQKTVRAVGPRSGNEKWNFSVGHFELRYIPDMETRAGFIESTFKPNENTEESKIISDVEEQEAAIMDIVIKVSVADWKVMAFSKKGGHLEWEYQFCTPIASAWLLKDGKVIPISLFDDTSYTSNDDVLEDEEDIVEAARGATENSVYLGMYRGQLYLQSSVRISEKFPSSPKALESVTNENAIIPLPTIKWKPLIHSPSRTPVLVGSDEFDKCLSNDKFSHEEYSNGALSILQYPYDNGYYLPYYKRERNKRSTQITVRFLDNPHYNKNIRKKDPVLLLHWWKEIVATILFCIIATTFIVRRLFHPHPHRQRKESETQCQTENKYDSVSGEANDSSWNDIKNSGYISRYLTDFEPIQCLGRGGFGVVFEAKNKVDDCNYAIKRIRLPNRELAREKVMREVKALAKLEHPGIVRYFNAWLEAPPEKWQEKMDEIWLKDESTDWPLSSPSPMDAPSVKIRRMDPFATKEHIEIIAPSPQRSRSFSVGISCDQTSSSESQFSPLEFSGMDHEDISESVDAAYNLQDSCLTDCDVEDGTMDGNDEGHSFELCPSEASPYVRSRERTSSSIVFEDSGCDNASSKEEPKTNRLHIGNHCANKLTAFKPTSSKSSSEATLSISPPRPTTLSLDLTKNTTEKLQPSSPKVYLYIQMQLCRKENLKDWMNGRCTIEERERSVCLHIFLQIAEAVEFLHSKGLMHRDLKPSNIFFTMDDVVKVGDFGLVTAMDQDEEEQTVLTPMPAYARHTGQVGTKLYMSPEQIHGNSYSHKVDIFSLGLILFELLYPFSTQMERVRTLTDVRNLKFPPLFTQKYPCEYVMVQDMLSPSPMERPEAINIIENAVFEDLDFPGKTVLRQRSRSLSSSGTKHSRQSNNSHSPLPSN

[6] = target: T2, Calcium/calmodulin-dependent protein kinase type IV (Homo sapiens) (UniProt Q16566); test: Inhibition of human recombinant CaMK4 at 15 nM related to control ULK1
T2 sequence (whole entry): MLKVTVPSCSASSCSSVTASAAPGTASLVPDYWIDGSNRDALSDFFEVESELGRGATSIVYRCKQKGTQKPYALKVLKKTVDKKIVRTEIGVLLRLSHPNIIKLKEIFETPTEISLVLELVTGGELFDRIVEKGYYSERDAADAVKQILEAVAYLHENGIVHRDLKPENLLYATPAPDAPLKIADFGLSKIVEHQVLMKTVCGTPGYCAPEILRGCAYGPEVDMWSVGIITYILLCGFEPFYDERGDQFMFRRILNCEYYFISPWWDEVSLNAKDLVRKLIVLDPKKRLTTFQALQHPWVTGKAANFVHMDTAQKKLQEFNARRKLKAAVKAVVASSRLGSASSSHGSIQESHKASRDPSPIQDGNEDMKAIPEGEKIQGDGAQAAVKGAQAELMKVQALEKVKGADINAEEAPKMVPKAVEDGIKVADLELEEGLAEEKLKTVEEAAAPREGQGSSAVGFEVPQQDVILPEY

[7] = target: Mitogen-activated protein kinase kinase kinase 20 (Homo sapiens) (UniProt Q9NYL2); test: Inhibition of human recombinant ZAK at 500 nM related to control ULK1
Chain of Mitogen-activated protein kinase kinase kinase 20 (Homo sapiens) (Q9NYL2 2-800 limits assumed): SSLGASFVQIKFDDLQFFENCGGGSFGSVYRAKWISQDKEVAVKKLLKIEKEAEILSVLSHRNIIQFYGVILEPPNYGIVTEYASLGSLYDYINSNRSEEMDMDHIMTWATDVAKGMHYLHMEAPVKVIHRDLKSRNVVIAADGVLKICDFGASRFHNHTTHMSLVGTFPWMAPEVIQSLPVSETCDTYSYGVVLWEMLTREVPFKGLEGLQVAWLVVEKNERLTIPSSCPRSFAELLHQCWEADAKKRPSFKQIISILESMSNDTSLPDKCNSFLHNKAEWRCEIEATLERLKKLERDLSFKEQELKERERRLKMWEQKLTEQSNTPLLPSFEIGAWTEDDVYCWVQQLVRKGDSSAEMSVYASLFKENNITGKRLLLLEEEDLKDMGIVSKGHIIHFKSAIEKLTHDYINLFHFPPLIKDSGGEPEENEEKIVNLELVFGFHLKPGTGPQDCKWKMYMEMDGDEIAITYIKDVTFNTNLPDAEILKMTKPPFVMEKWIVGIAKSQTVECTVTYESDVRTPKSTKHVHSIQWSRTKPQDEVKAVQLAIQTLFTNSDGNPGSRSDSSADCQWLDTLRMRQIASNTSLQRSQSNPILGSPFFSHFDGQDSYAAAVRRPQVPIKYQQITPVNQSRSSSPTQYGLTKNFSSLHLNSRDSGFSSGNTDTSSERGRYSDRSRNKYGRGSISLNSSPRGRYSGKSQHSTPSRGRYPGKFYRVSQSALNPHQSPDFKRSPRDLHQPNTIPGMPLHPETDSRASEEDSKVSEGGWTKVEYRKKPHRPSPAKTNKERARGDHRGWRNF

[8] = target: Serine/threonine-protein kinase PAK 4 (Homo sapiens) (UniProt O96013); test: Inhibition of human recombinant PAK4 at 500 nM in presence of ATP by radiometric assay relative to control
Chain of Serine/threonine-protein kinase PAK 4 (Homo sapiens) (O96013 whole entry, looked up): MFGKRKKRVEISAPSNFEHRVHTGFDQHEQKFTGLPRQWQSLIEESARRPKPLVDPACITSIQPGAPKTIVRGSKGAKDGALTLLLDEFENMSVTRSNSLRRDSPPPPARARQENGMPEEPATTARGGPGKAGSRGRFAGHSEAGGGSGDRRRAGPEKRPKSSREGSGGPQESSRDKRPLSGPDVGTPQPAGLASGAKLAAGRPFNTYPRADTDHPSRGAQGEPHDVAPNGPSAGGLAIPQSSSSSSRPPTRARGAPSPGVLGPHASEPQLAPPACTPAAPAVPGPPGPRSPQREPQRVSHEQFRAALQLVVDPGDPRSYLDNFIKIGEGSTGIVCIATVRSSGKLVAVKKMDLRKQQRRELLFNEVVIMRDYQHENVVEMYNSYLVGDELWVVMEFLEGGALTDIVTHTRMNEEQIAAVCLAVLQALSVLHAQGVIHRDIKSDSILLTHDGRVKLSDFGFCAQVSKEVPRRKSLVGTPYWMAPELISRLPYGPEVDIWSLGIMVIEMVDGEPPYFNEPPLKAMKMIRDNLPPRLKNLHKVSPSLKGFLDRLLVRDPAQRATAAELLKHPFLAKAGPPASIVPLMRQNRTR

[9] = target: T3, Serine/threonine-protein kinase tousled-like 1 (Homo sapiens) (UniProt Q9UKI8); test: Inhibition of human recombinant TLK1 at 500 nM in presence of ATP by radiometric assay relative to control
T3 sequence (whole entry): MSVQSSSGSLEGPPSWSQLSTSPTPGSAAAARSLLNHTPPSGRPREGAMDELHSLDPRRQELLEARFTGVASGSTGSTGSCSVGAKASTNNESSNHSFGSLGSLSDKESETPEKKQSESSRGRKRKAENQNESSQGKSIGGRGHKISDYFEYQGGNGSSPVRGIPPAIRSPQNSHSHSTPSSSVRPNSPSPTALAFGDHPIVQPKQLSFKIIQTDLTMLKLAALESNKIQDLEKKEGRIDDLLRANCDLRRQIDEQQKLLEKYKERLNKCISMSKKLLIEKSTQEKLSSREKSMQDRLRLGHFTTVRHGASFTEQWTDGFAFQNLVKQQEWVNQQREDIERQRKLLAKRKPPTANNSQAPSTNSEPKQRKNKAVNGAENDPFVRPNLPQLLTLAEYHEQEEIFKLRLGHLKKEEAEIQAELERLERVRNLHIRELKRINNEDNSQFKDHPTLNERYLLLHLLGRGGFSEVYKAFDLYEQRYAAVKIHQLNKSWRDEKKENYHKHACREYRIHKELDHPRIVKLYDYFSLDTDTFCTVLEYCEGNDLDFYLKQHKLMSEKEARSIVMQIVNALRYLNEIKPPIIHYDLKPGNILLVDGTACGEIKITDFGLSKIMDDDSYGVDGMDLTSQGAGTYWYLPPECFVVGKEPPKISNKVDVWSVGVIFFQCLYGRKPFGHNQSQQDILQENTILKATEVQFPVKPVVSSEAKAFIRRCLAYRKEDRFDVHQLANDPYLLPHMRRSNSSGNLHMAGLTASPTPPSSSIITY

Chain of Tyrosine-protein kinase JAK2 (Homo sapiens) (O60674 whole entry): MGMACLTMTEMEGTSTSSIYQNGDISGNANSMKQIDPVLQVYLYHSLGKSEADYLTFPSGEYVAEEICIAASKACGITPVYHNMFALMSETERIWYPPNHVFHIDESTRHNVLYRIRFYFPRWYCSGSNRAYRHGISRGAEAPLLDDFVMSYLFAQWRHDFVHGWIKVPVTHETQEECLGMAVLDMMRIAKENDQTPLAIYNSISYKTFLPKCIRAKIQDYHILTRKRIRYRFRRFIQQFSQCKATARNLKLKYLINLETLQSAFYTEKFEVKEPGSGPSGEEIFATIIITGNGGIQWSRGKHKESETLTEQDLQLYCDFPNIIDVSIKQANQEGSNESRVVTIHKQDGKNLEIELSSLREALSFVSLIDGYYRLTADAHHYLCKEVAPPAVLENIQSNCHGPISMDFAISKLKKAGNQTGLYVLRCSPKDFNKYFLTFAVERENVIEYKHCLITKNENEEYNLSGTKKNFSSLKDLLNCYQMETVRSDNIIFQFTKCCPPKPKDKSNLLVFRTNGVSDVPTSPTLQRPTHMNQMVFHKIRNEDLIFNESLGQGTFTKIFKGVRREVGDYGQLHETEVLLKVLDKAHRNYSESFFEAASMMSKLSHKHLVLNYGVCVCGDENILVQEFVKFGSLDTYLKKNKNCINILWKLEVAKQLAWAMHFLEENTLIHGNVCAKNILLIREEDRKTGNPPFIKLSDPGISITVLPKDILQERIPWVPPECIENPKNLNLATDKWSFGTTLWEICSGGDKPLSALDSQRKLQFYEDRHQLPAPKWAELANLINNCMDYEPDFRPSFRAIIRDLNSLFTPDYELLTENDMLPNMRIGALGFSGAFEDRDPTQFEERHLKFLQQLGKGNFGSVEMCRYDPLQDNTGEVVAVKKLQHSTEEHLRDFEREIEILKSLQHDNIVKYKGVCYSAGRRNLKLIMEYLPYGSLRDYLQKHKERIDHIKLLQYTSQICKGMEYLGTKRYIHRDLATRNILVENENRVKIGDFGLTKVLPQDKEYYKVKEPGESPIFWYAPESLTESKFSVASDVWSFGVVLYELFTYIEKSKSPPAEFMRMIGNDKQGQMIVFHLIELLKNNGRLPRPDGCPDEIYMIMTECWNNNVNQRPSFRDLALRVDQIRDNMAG

Structure (SMILES): O=C(N[C@@H](C1CC1)C(F)(F)F)c1cc(-c2cnn3cc(-c4ccc(F)cc4)cnc23)cs1
- fold change (FC) [1]: 0
- fold change (FC) [2]: 0
- fold change (FC) [3]: 0.27
- fold change (FC) [4]: 0.03
- fold change (FC) [5]: 0

Structure (SMILES): CC(C)[C@H](NC(=O)c1cc(-c2cnn3cc(-c4ccc(OCCN5CCCCC5)cc4)cnc23)cs1)C(F)(F)F
- fold change (FC) [6]: 0

Structure (SMILES): CNC(=O)c1ccccc1Oc1nc(Nc2cc(OC)c(OC)c(OC)c2)ncc1Br
- fold change (FC) [7]: 0.01
- inhibition [8]: 41%
- inhibition [9]: 0%
